Test results taken from patent US20090010873A1, “Methods of Cell Therapy, Neurogenesis and Oligodendrogenesis” (YEDA RESEARCH AND DEVELOPMENT CO. LTD., priority 2004, published 2009).

How the values were obtained:
microglia = assay: TNF-α and IGF-I expression in treated microglia (RT-PCR, Q-PCR, immunocytochemistry); type: cell-based, mouse
Procedure: (v) RNA purification, cDNA synthesis, and reverse-transcription PCR analysis. Cells were lysed with TRI reagent (MRC, Cincinnati, Ohio), and total cellular RNA was purified from lysates using the RNeasy kit (Qiagen, Hilden, Germany) according to the manufacturer's instructions. Residual genomic DNA was removed during the purification process by incubation with RNase-free DNase (Qiagen). RNA was stored in RNase-free water (Qiagen) at −80° C. RNA (1 μg) was converted to cDNA using SuperScript II ([…], Madison, Wis.), as recommended by the manufacturer. The cDNA mixture was diluted 1:5 with PCR-grade water.
We assayed the expression of specific mRNAs using semi-quantitative reverse transcription PCR(RT-PCR) with selected gene-specific primer pairs, using OLIGO v6.4 (Molecular Biology Insights, Cascade, Colo.).
The RT-PCR reactions were carried out using 1 μg of cDNA, […] of each primer, and ReadyMix PCR Master Mix (ABgene, Epsom, UK) in 30-μl reactions. PCR reactions were carried out in an Eppendorf PCR system with cycles (usually 25-30) of 95° C. for 30 s, 60° C. for 1 min, 72° C. for 1 min, and 72° C. for 5 min, and then kept at 4° C. As an internal standard for the amount of cDNA synthesized, we used β-actin mRNA. PCR products were subjected to agarose gel analysis and visualized by ethidium bromide staining. Signals were quantified using a Gel-Pro analyzer 3.1 (Media Cybernetics).
(xxiv) Real-time quantitative PCR analysis. Total cellular RNA purification and cDNA synthesis was performed as described in section (v) of Example 1 above. We assayed the expression of specific mRNAs using real-time quantitative PCR (Q-PCR) with selected gene-specific primer pairs. Q-PCR reactions were performed with a high-speed thermal cycler (LightCycler; Roche Diagnostics), and the product was detected by FastStart Master SYBR Green I (Roche Molecular Biochemicals) according to the manufacturer's instructions. The amplification cycle was 95° C. for 10 s, 60° C. for 5 s, and 72° C. for 10 s. The primers used were: […]

[1] = test system: neural progenitor cells (NPCs); assay: NPCs co-cultured with microglia pre-activated by aggregated Aβ and cytokines (β-III-tubulin); type: cell-based, mouse; conditions: 10 days co-culture; Aβ 5 μM, IFN-γ 10 ng/ml
Procedure: (xlvi) Reagents. Recombinant mouse IFN-γ and IL-4 (both containing endotoxin at a concentration below 0.1 ng/μg cytokine) were obtained from R&D Systems (Minneapolis, Minn.). β-amyloid peptides [amyloid protein fragment 1-40 and 1-42 (Aβ1-40/1-42)] were purchased from Sigma-Aldrich, St. Louis, Mo. The Aβ peptides were dissolved in endotoxin-free water, and Aβ aggregates were formed by incubation of Aβ, as described (Ishii et al., 2000).
(li) Neural progenitor cell culture. Coronal sections (2 mm thick) of tissue containing the subventricular zone of the lateral ventricle were obtained from the brains of adult C57B1/6J mice. The tissue was minced and then incubated for digestion at 37° C., 5% CO2 for 45 min in Earle's balanced salt solution containing 0.94 mg/ml papain (Worthington, Lakewood, N.J.) and 0.18 mg/ml of L-cysteine and EDTA. After centrifugation at 110×g for 15 min at room temperature, the tissue was mechanically dissociated by pipette trituration. Cells obtained from single-cell suspensions were plated (3500 cells/cm^2) in 75-cm^2 Falcon tissue-culture flasks (BD Biosciences, San Diego, Calif.), in NPC-culturing medium [Dulbecco's modified Eagles's medium (DMEM)/F12 medium (Gibco/Invitrogen, Carlsbad, Calif.) containing 2 mM L-glutamine, 0.6% glucose, 9.6 μg/ml putrescine, 6.3 ng/ml progesterone, 5.2 ng/ml sodium selenite, 0.02 mg/ml insulin, 0.1 mg/ml transferrin, 2 μg/ml heparin (all from Sigma-Aldrich, Rehovot, Israel), fibroblast growth factor-2 (human recombinant, 20 ng/ml), and epidermal growth factor (human recombinant, 20 ng/ml; both from Peprotech, Rocky Hill, N.J.)]. Spheres were passaged every 4-6 days and replated as single cells. Green fluorescent protein (GFP)-expressing NPCs were obtained as previously described (Pluchino et al., 2003).
(lii) Primary microglial culture. Brains from neonatal (P0-P1) C57B1/6J mice were stripped of their meninges and minced with scissors under a dissecting microscope (Zeiss, Stemi DV4, Germany) in Leibovitz-15 medium (Biological Industries, Kibbutz Beit Ha-Emek, Israel). […]

Substance: IFN-γ
- expression of IGF-I in microglia (Q-PCR) (microglia; 10 ng/ml, 24 h): no effect
- expression of IGF-I in microglia (Q-PCR) (microglia; 100 ng/ml, 24 h): completely arrested
- IGF-I production/expression by microglia (microglia; RT-PCR time course and immunocytochemistry, IL-4 10 ng/ml, IFN-γ 20 ng/ml, LPS 100 ng/ml): down-regulation of IGF-I
- TNF-α production by microglia (microglia; RT-PCR time course, IFN-γ 20 ng/ml): transient increase
- TNF-α production in microglia (Q-PCR) (microglia; high-dose IFN-γ (100 ng/ml), 24 h): induced
- GFP^+/βIIIT^+ cells (neurogenesis) with microglia activated by the agent [1]: dramatic
